Data published in patent publication US20250270549A1, “MSI2 AS A THERAPEUTIC TARGET FOR THE TREATMENT OF MYOTONIC DYSTROPHY” (UNIVERSITAT DE VALÈNCIA, priority 2021, published 2025).
l = locked nucleic acid (LNA); d = 2'-deoxy (DNA)

Legend:
MSI2 transcripts = test: MSI2 relative expression (transcripts) by RT-qPCR in muscle cells; format: cell-based, H. sapiens
Procedure: (§1) TDMs were cultured as previously described^1. After 4 days in differentiation medium (MDM), cells were transfected with a combination of two siRNAs (SEQ ID NO: 40 and 43) targeting MSI2 transcripts (final concentration 100 nM) using Lipofectamine RNAiMAX transfection reagent (Invitrogen, Madrid, Spain)) following the manufacturer's recommendations. After 48 h, the medium containing the siRNAs was replaced by fresh MDM. 24 h later, cells were collected. As a control, the same protocol was performed using 100 nM of a siRNA with a scrambled sequence (Cat #4390843 for negative control). Gapmers against MSI2 and agomiR-107 were transfected following the same protocol using two different concentrations, 30 and 150 nM in the case of Gapmers and 100 and 300 nM in the case of agomiR-107. To treat cells with the small molecule Ro-08-2750 (Tocris Cat. No. 2272, Bristol, UK)), cells were cultured as before. Briefly, after 96 h in MDM, the medium was supplemented with Ro-08-2750 at a final concentration of 10 μM (0.8% DMSO) or with the vehicle, DMSO 0.8%, for 48 h. Then cells were collected for further analyses.
(§2) All the procedures were performed as previously described^1.

miR-7 = miR-7 quantification by RT-qPCR in MD1 cells; format: cell-based, human; details: MD1 cells, * significant
Procedure: as §1, §2

TGFBR1 = TGFBR1 expression by RT-qPCR in MD1 muscle cells; format: cell-based, H. sapiens; details: DM1 TDMs; 150 nM
Procedure: as §1, §2

MD1 TDMs = test: Desmin immunostaining: myogenic fusion index and myotube diameter; format: cell-based, human; details: MD1 myotubes; 30 nM
Procedure: as §1
Desmin immunostaining and fusion index and diameter determination were performed as previously described^3. For MSI2 immunodetection, 3.5×10^4 fibroblasts/well were seeded in 24 well plates. After 7 days of differentiation into myotubes, cells were fixed with 4% paraformaldehyde (PFA) for 15 min. After 3 washes with PBS-T (0.1%×-TritonX-100 in PBS 1×) cells were blocked (PBS-T, 1% BSA, 5% normal goat serum) for 1 h and incubated with rabbit anti-MSI2 antibody (1:100, Abcam, EP1305Y, Cambridge, UK) in blocking buffer for 48 h at 4° C. After three washes with PBS-T, cells were incubated for 1 h with goat anti-rabbit-FITC IgG (1:200, Sigma-Aldrich, St. Louis, Missouri) in blocking buffer. Finally, cells were washed thrice with PBS 1× and were counterstained and mounted with VECTASHIELD® mounting medium containing DAPI (Vector Laboratories, London, UK) to detect the nuclei. Images were taken in a confocal microscope LSM800 (Zeiss) at 400× magnification.

AKT = AKT pathway activation: phospho (Ser473)-AKT-to-total-AKT ratio; format: cell-based, human; details: DM1 TDMs; 150 nM
Procedure: (§3) FIG. 10. Inhibition of MSI2 expression in DM1 TDMs restores impaired autophagic markers. (A) qRT-PCR quantification of the relative expression of the indicated genes involved in different autophagy pathway steps in DM1 and control (green dashed lines) myotubes. Statistical analyses were performed comparing DM1 versus controls. (B) Analyses of the expression of genes quantified in (A) in DM1 myotubes treated with ASOs targeting MSI2 transcripts. All comparisons for the statistical analyses were performed using their corresponding scrambled control (dashed lines). […] Quantification and representative western blots of (C) ATG4A, (D) ATG7, (E) AKT-P/AKT total protein levels, and (F) LC3-II/LC3-I ratio in DM1 TDMs treated with MSI2 targeting or scrambled ASOs at the indicated concentrations. Green dashed lines indicate protein expression levels in control myotubes. β-actin was used as an endogenous control to normalize protein levels (n=3). The bar graphs show mean #SEM. * p<0.05, ** p<0.01, *** p<0.001, and **** p<0.0001 according to Student's t test.
Protein extraction, quantification and immunodetection were performed as previously described^1,3. Specifically, MSI2 detections were performed by incubating membranes overnight with a rabbit anti-MSI2 antibody (1:1000, Abcam, EP1305Y, Cambridge, UK). […] Quantification was performed using ImageJ software (NIH).

LC3 = LC3 immunostaining and LC3 puncta quantification; format: cell-based, human; details: DM1 TDMs; compared to scrambled ASO at the same concentration
Procedure: For LC3B immunodetection, cells were differentiated in MDM for 7 days (3×10^5 cells/well in 24-well plates). After 48 h of gapmer treatment, cells were fixed with 4% PFA in PBS for 15 min at room temperature. After fixation, cells were permeabilized with methanol 100% for 15 min at −20° C. and blocked with blocking buffer (PBS 1×, 0.5% BSA, 1% goat serum) for 1 h at room temperature. Cells were incubated overnight (O/N) with rabbit anti-LC3B (1:200, ab51520; Abcam, Cambridge, UK) diluted in blocking buffer. Then, samples were incubated with goat anti-rabbit IgG (H+L) Alexa Fluor Plus 594 (1:200; Invitrogen, Carlsbad, CA, USA) for 2 h. Between antibodies, cells were washed three times with PBS 1×. Finally, cells were washed three times with PBS and mounted in Vectashield (Vector Laboratories, London, UK) with […] DAPI.
Image analyses of LC3-stained myotubes were performed using the Ifdotmeter software following the authors' recommendations (see Rodríguez-Arribas, M., et al. (2016). IFDOTMETER: A New Software Application for Automated Immunofluorescence Analysis. J. Lab. Autom. 21, 246-259). Briefly, the quantification of the number of LC3 dots or LC3 puncta was performed with 15-20 images per condition. Total LC3 dots per image were normalized relative to the total area corresponding to all myotubes observed in each image. Myotube area was measured by using ImageJ software. Data were expressed as the number of LC3 dots/mm2.

[1] = tested on: ATG3, ATG4A, ATG5, ATG7, and mTOR; test: qRT-PCR of autophagy pathway genes in DM1 TDMs; format: cell-based, human; details: highest concentration (150 nM)
Procedure: as §3, §2

Procedure for Human CNT myotubes: (A) Cell growth inhibition assay by MTS method. Human CNT myotubes were transfected with increasing concentrations of ASO1, 2 and 3 (n=4). […] Vertical dashed lines indicate used concentrations in the following experiments: 30 and 150 nM.
Non-DM control (Ctrl) cells (CNT) were aliquoted in 96-well plates with 1.0×10^5 cells per well. After 24 h, cells were transfected as described with different ASOs (concentrations ranging from 1 nM to 1 μM) or treated with Ro-08-2750 (Tocris Bioscience, Bristol, UK) at concentrations ranging from 0.0195 up to 80 μM (in 1:2 serial dilutions). Cell viability was measured as previously described^3.

## ASO1: gapmer antisense oligonucleotide against MSI2 transcript, SEQ ID NO: 76 (38), 5′ +T+G+A*C*T*T*C*T*T*T*C*G*G+C+T+G 3′, LNA ends, phosphorothioate linkages (antisense TGACTTCTTTCGGCTG; sugars from the 5' end l3 d10 l3, backbone and methylation of C not given here; further chemistry not fully specified)
MSI2 transcripts; DM1 TDMs, 30 and 150 nM
  MSI2 relative expression upon transfection: significant reduction
MSI2 transcripts; MD1-derived myoblasts, 150 nM
  reduction of MSI2 transcript: 27%
miR-7; ASO 30 nM, Ro 08-2750 10 μM, siRNA 100 nM
  FC miR-7 expression respect to MD1, Low concentration: 1.49 fold
miR-7; ASO 150 nM
  FC miR-7 expression respect to MD1, High concentration: 1.72* fold
TGFBR1
  TGFBR1 expression: behaved the opposite
MD1 TDMs
  fusion capacity (fusion index and diameter): significant rescue
AKT
  AKT-P/AKT ratio: robust increase
LC3
  LC3 dots per unit of area: significant decrease
[1]
  ATG5 expression: significantly reduced
Human CNT myotubes
  TC10: 31.2 nM
